Assay results taken from patent US20240294508A1, “RIP1 MODULATORS INCLUDING AZETIDINE CYCLIC UREAS, PREPARATIONS, AND USES THEREOF” (SIRONAX LTD., priority 2021, published 2024).

System: HT-29 cells
Assay: HT29 cells 0FBS assay in vitro: TNF-α/SMAC mimetic/zVAD-FMK induced necroptosis, CellTiter-Glo cell viability (RIP1 inhibitory activity)
Assay type: cell-based
Details: Homo sapiens, FBS free medium, TNF-α (10 ng/ml) + SMAC mimetic (6 uM) + zVAD-FMK (10 μM), 20 hours, geometric mean EC50
How it was run: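 Luminescent ATP read-out (CellTiter-Glo) gave viability of HT-29 cells after 20 h at 37° C in serum-free medium containing compound and a necroptosis cocktail of 10 ng/ml TNF-α, 6 uM SMAC mimetic and 10 μM zVAD-FMK. EC50s are geometric means of 10-point curves run in duplicate.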

Structure (SMILES)	EC50 [nM]
COc1nccc(C)c1-c1cc(OC2CN(C(=O)N3N=CC[C@H]3c3cc(F)cc(F)c3)C2)c(F)cn1 [Compound 165, (S)-(5-(3,5-difluorophenyl)-4,5-dihydro-1H-pyrazol-1-yl)(3-((5-fluoro-2′-methoxy-4′-methyl-[2,3′-bipyridin]-4-yl)oxy)azetidin-1-yl)methanone]	100 to 1000
Cc1cc[nH]c(=O)c1-c1cc(OC2CN(C(=O)N3N=CC[C@H]3c3cc(F)cc(F)c3)C2)c(F)cn1 [Compound 166, (S)-4-((1-(5-(3,5-difluorophenyl)-4,5-dihydro-11H-pyrazole-1-carbonyl)azetidin-3-yl)oxy)-5-fluoro-4′-methyl-[2,3′-bipyridin]-2′(1′H)-one]	100 to 1000
O=C(N1CC(Oc2cc(-c3ccc[nH]c3=O)ncc2F)C1)N1N=CC[C@H]1c1cc(F)cc(F)c1 [Compound 167, (S)-4-((1-(5-(3,5-difluorophenyl)-4,5-dihydro-1H-pyrazole-1-carbonyl)azetidin-3-yl)oxy)-5-fluoro-[2,3′-bipyridin]-2′(1′H)-one]	0.1 to 100
Cc1ccn(C)c(=O)c1-c1cc(OC2CN(C(=O)N3N=CC[C@H]3c3cc(F)cc(F)c3)C2)c(F)cn1 [Compound 168, (S)-4-((1-(5-(3,5-difluorophenyl)-4,5-dihydro-1H-pyrazole-1-carbonyl)azetidin-3-yl)oxy)-5-fluoro-1′,4′-dimethyl-[2,3′-bipyridin]-2′(1′H)-one]	1000 to 10000
